These results are taken from PMC9317397, “Design and Synthesis of Hepatitis B Virus (HBV) Capsid Assembly Modulators and Evaluation of Their Activity in Mammalian Cell Model” (Pharmaceuticals, 2022).

Structures are written as SMILES. Entries after “also recorded” stand apart in the source; their conditions may differ. Like-named read-outs stand apart in the source and are kept apart here. Where only a bound is given, the exact number is not on record here.

What is called EC50 is the concentration needed to bring the measured effect to its halfway point. As a reminder, the viability is a per cent measure of how many cells are alive, often set against a control.

The target of one data set is HBc protein (Hepatitis B virus genotype D subtype ayw, UniProt P03146, A80I/T33N/V74G). Nature of the data set: Anti-HBc immunostaining and confocal microscopy of HBc-producing BHK-21 cells. The data set is classed as cell-based. To be noted: 20 μM and 50 μM, 24 h.
Sequence of HBc protein (P03146 whole entry A80I/T33N/V74G, looked up): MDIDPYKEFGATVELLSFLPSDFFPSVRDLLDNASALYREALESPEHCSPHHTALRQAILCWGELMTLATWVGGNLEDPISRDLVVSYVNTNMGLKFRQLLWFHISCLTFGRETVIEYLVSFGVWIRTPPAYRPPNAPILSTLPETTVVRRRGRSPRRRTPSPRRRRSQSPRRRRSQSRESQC
Another data set concerns HepG2.2.15 cells. Nature of the data set: MTT viability test in HepG2.2.15 cells (TC50). It counts as cell-based, human. Particulars: 48 h, 0–200 µM. A general note: Tetrazolium dyes change colour on reduction, which living cells bring about.
Data set [1] has as its system HBV. The data set is described as follows: microbe, parasite or virus in culture. To be noted: Hepatitis B virus, HepG2.2.15, 144 h, read-out: EC50 (50% reduction of HBV DNA), HepG2.2.15 cells, six days, 0–20 µM.
Data set [2] addresses HBV capsid assembly (full-length HBc protein, genotype D1) (Hepatitis B virus genotype D subtype ayw, UniProt P03146, A80I/T33N/V74G). Nature of the data set: HBV capsid assembly in SFV1/HBc-infected HBc-producing BHK-21 cells, native agarose gel anti-HBc immunoblot. It counts as cell-based. To be noted: HBc-producing BHK-21 cells; for Type of effect on HBV capsid assembly in dose-dependent experiments: 0.1–50 µM, 24 h (Figure 6); for Effect on capsid production / mobility in initial test: 1–50 μM, 24 h (Figure 5); for Effect on Capsid Assembly / Effect on Capsid Assembly, Starting Concentration: 24 h, native agarose immunoblot. Background: Immunoblotting shows a protein as a band on a membrane.

Data set [3] relates to BHK-21 cells. Nature of the data set: MTT viability assay in BHK-21 cells. The data set is classed as cell-based, hamster. Particulars: 6.125–200 µM, 24 h. The method, then: (§1) BHK-21 cells were incubated with different concentrations (6.125, 12.25, 25, 50, 100, and 200 µM) of the respective compounds and the cell viability was calculated as a percentage from untreated cells (100%) (Figure 7). In general, the results confirmed the morphological observation of relatively low cytotoxicity for tested compounds at concentrations below 100 µM.
(§2) Additionally, cell viability was determined by tetrazolium salt-based assay using the Vybrant MTT Cell Proliferation kit (Thermo Fisher Scientific, Waltham, MA, USA) or more sensitive CCK-8 kit (Abcam). First, the cell numbers and protocol were optimized for BHK-21 and HepG2.2.15 cells, as indicated in the MTT assay kit or CCK-8 reagent manufacturer’s protocol, and standard curves with OD values were created and evaluated.
(§3) In order to evaluate the toxicity of selected HAP compounds in the medium, 1.3 × 10^4 BHK-21 were seeded per well in 96-well plates and treated with the studied compounds for 24 h at concentrations 6.125; 12.25; 25; 50; 100; and 200 μM. Control cells without HAP compounds and MTT-free cell media were included in the experiments. The MTT test was performed according to the full protocol version (Thermo Fisher Scientific).

Data set [4] concerns the target HBV capsids (HBc assembly products) (Hepatitis B virus genotype D subtype ayw, UniProt P03146, A80I/T33N/V74G). Nature of the data set: Electron microscopy of HBc assembly products purified from treated BHK-21 cells. The data set is classed as cell-based. Particulars: 50 μM, 24 h, sucrose cushion pellet.
The test system of data set [5] is HBV. Particulars: HepG2.2.15 cells; for HBV DNA, % from control: six days, secreted virion DNA; for Decrease in the amount of HBV virion release compared with control: Figure 8.
Data set [6] has as its system BHK-21 cells. Nature of the data set: Cytopathic effect (cell morphology, proliferation, trypan blue) in non-infected BHK-21 cells. The data set is classed as cell-based, hamster. Particulars: 24 h; for The Highest Non-Toxic Concentration: non-infected BHK-21 cells, no noticeable cytopathic effect. The method, then:
To define HAP compound non-toxic concentrations for initial studies, non-infected BHK-21 cells were incubated with compounds at four different concentrations for 24 h (25 μM, 50 μM, 100 μM, and 200 μM), and the cytopathic effects were evaluated by analysis of cell morphology and proliferation changes. […] 1c, 1j, 1k and 4a, and 7b. The reference comp.
The cytopathic effect of the compounds was estimated by phase contrast microscopy and standard trypan blue staining, and the cells were counted using an automatic cell counter (Invitrogen). BHK-21 and HepG2.2.15 cells were incubated for 24 h with the studied compounds at […] (25, 50, 100, 150 and 200 μM) and the cell morphology was controlled under microscope to evaluate cytopathic effects (Table 1, the highest non-toxic concentration).
A general note: Protection from cytopathic effect is a common read-out in antiviral testing.

Data set [7] is described as follows: MTT viability assay in BHK-21 cells. It counts as cell-based, hamster. To be noted: hamster, 200 µM, read-out: Cell viability, percentage from untreated cells. As for the experimental part:
as §1, §2, §3

A further data set deals with primary hepatocytes. Details: method as in PMID 25921762. To be noted: cited from earlier work.

Sequence of HBV capsid assembly (full-length HBc protein, genotype D1) (P03146 whole entry A80I/T33N/V74G, looked up): as above
Sequence of HBV capsids (HBc assembly products) (P03146 whole entry A80I/T33N/V74G, looked up): as above
Procedure for HepG2.2.15 cells: In order to compare the cytotoxicity of compounds 1d and 1e in HBV producing HepG2.2.15 cells, the toxic concentrations (TC50 values) were estimated (Figure 9B,C).
In order to calculate the median of the toxic concentration (TC50) of the compounds, 1.33 × 10^5 HepG2.2.15 cells per well were seeded into a 24-well plate. After 24 h, the cells were treated with the test compounds at different concentrations (0, 50, 100, 150, 200 μM) and incubated for 48 h at 37 °C. All experiments were carried out in three identical repeats and the coefficient of variation and standard deviation were calculated from at least two independent experiments.
The percent inhibition at each compound concentration was calculated by normalization of the signals to the signals from non-treated HepG2.2.15 cells. […] Data points and error bars represent the means and standard deviations from at least two independent experiments, respectively. Comparisons between data groups were performed using the unpaired t test, with p values < 0.05 being considered statistically significant.

In the case of `CCOCCOC(=O)C1=C(C)NC(c2ncc(F)cc2F)=NC1c1ccc(F)cc1Cl` (stereo not drawn) [1d], at HBc protein, the “Intracellular localization of HBc” value is “speckled dot pattern of HBc distribution in the cytoplasm; also recorded: blocked the intranuclear transport of HBc protein”. Also, the TC50 in the data set on HepG2.2.15 cells turned out to be 175 µM. For the same molecule, the EC50 in the data set on HBV [1] is 6.24 µM. In data set [2], the “Type of effect on HBV capsid assembly in dose-dependent experiments” value (“Type of effect on HBV capsid assembly” for short) is on record as “dose-dependent HBc products accumulation”; the “Effect on capsid production / mobility in initial test” value is on record as “misfolding of the HBV capsid”; the “Effect on Capsid Assembly” value was “HBc accumulation, aggregates/or incorrect capsid structures”; the “Effect on Capsid Assembly, Starting Concentration” value (from here on “Effect … Starting Concentration”) came out at 5 µM. Moreover, the “Cell viability compared to untreated control” value in the data set with BHK-21 cells [3] is “did not demonstrate the difference in cell viability”. Further, the “Morphology of HBc assembly products by electron microscopy” value in data set [4] was “irregularly shaped structures that resembled capsids of the wrong size and incorrect symmetry, as well as the capsid aggregates”. Further, in the data set on HBV [5], the “SI (TC50/EC50)” value was 28 and the “Decrease in the amount of HBV virion release compared with control” value is recorded as no more than 93.5%. Further, in the data set on HBV [5] (20 µM), the “HBV DNA, % from control” value amounted to 6.5%.

`CC1=C(C(=O)OCCOC(C)C)C(c2ccc(F)cc2Cl)N=C(c2ncc(F)cc2F)N1` (stereo not drawn) [1e] came in with a TC50 with HepG2.2.15 cells of 98 µM. Also, in the data set on HBV [1], the EC50 worked out at 9.16 µM. The “The Highest Non-Toxic Concentration” value in the data set on BHK-21 cells [6] is 100 µM. Further, the “Effect on capsids at lower concentrations” value in data set [2] (5 μM and 10 μM) is “capsid stabilization and accumulation”. The “Effect on capsids at higher concentrations” value in [2] (20 μM and 50 μM) is “capsids were almost non-detectable”. In addition, in data set [2], the “Type of effect on HBV capsid assembly” value was “dose-dependent HBc signal decrease”; the “Effect on capsid production / mobility in initial test” value is listed as “misfolding of the HBV capsid”; the “Effect on Capsid Assembly” value is “Dose dependent capsid signal decrease”; the “Effect … Starting Concentration” value is 10 µM. Besides, the viability at 24 h, 200 µM in data set [7] was greater than 90%. Also, in the data set with HBV [5], the “SI (TC50/EC50)” value is listed as 11 and the “Decrease in the amount of HBV virion release compared with control” value is listed as no more than 93.5%. Besides, in the data set with HBV [5] (20 µM), the “HBV DNA, % from control” value was 6.3%.

As for `COC(=O)C1=C(C)NC(c2ncc(F)cc2F)=NC1c1ccc(F)cc1Cl` (stereo not drawn) [1a, Bay 41-4109, reference compound], the Toxic concentration in the data set on primary hepatocytes was 5.06 µM. Besides, the EC50 with HBV [1] is 0.35 µM. In addition, the “Concentration revealing cell toxicity signs” value in the data set on BHK-21 cells [6] (BHK-21 cells) turned out to be 100 µM. The “The Highest Non-Toxic Concentration” value in the data set with BHK-21 cells [6] was determined as 100 µM. Further, in data set [2], the “Type of effect on HBV capsid assembly” value is given as “dose-dependent HBc signal decrease”; the “Effect on Capsid Assembly” value is “Dose dependent capsid signal decrease”; the “Effect … Starting Concentration” value turned out to be 1 µM. Moreover, in the data set on HBV [5] (10 µM), the “HBV DNA, % from control” value came out at 2.5%.
